Experimental data as given in ChEMBL document CHEMBL1133781, “High-pressure synthesis of enantiomerically pure C-6 substituted pyrazol” (Bioorg Med Chem Lett, 2001).
pKi: −log10 of the molar value.

Experiments:
Adenosine receptor A2a = Adenosine receptor A2a (Rattus norvegicus, UniProt P30543); assay: Displacement of [3H]CGS-21680 (Kd, 14.9 nM) from A2A receptor in rat striatal membranes; format: cell membranes, Membrane
Adenosine receptor A1 = biological target: T1, Adenosine receptor A1 (Rattus norvegicus, UniProt P25099); assay: Displacement of [3H]N6-PIA (Kd, 1 nM) binding from Adenosine A1 receptor in whole rat brain membranes; format: cell membranes
T1 sequence (P25099 whole entry): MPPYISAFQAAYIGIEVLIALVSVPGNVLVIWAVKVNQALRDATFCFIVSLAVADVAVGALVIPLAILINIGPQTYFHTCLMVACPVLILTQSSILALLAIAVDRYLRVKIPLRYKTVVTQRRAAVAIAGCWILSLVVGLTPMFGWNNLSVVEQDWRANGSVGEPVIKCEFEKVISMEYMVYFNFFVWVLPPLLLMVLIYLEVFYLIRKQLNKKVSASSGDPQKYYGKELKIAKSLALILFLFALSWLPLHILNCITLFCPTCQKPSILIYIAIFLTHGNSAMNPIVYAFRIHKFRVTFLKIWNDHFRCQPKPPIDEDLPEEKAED

Sequence of Adenosine receptor A2a (P30543 whole entry): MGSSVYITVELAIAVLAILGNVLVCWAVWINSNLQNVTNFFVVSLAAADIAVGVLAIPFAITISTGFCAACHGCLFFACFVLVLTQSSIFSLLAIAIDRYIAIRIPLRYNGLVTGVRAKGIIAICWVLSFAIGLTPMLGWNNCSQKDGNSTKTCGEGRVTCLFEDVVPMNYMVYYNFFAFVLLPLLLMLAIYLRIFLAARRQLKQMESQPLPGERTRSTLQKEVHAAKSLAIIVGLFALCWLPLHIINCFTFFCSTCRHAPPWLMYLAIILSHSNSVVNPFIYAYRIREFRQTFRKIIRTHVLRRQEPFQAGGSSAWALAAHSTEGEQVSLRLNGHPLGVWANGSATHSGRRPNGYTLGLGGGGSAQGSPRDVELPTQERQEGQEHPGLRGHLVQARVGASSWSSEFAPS

Row | pKi (Adenosine receptor A2a) | pKi (Adenosine receptor A1) | SMILES
1 | 5.67 | 6.31 | C[C@@H](Nc1nc(N)c2cnn(-c3ccccc3)c2n1)C(N)=O
2 | 6.19 | 7.31 | C[C@H](Nc1nc(N)c2cnn(-c3ccccc3)c2n1)C(N)=O
3 | 6.03 | 7.08 | CC(Nc1nc(N)c2cnn(-c3ccccc3)c2n1)C(N)=O (racemic)
